Experimental data: US4118487A, “Substituted azol-1-ylmethanes” (Bayer Aktiengesellschaft, priority 1974, dated 1978)
≈ marks a conversion by molar mass, not a printed value. Like-named read-outs stand apart in the source and are kept apart here.

Tests used:
Klebsiella 8085 = assay: Antibacterial activity in vitro, plast test (MIC); type: cell-based; settings: agar plate, 5 × 10^3 /plate, pH 7.4
Description: (§1) The in vitro tests were carried out by the plast test. In this, the bacteria were cast with the agar, at a concentration of 5 × 10^3 /plate. […]

Streptococcus pyogenes W = assay: Antibacterial activity in vitro, plast test (MIC); type: cell-based; settings: agar plate, 5 × 10^3 /plate, pH 7.4; in µg/mL
Description: as §1

[1] = test system: Staphylococcus aureus 133; assay: Antibacterial activity in vitro, plast test (MIC); type: cell-based; settings: agar plate, 5 × 10^3 /plate, pH 7.4
Description: as §1

Proteus vulgaris 1017 = assay: Antibacterial activity in vitro, plast test (MIC); type: cell-based; settings: agar plate, 5 × 10^3 /plate, pH 7.4
Description: as §1

fungi = settings: Belgian Pat. No. 720,801; cited from earlier work
Pseudomonas aerug. B = assay: Antibacterial activity in vitro, plast test (MIC); type: cell-based; settings: agar plate, 5 × 10^3 /plate, pH 7.4
Description: as §1

[2] = test system: Trichophyton mentagrophvtes; assay: Antimycotic activity in vitro, series dilution test (MIC); type: cell-based, Trichophyton mentagrophytes; settings: 28° C., 24-96 hours, Sabouraud's milieu d'epreuve, 5 × 10^4 germs/ml, read-out: MIC values in γ/ml of nutrient medium, for Trichophyton mentagrophvtes
Description: (§2) The in vitro tests were carried out in a series dilution test with germ inocula averaging 5 × 10^4 germs/ml of substrate. The nutrient media used were
(§3) (a) for dermatophytes and molds Sabouraud's milieu d'epreuve,
(§4) The incubation temperatures were 28° C. for dermatophytes, yeasts and molds and 37° C. for biphase fungi; the incubation time was 24-96 hours.

Candida albicans = assay: as above; type: cell-based; settings: read-out: MIC values in γ/ml of nutrient medium, for Candida albicans
Description: as §2
(b) for yeasts: meat extract-glucose bouillon,
as §4

Pityrosporum ovale = assay: as above; type: cell-based; settings: Malassezia furfur; Abbe medium, 24-96 hours, 5 × 10^4 germs/ml; read-out: MIC values in γ/ml of nutrient medium, for Pityrosporum ovale
Description: The in vitro tests were carried out in a series dilution test with germ inocula averaging 5 × 10^4 germs/ml of substrate. The nutrient media used were (c) for Pytrosporum ovale: Abbe medium, and The incubation temperatures were 28° C. for dermatophytes, yeasts and molds and 37° C. for biphase fungi; the incubation time was 24-96 hours.

Histoplasma = assay: microbe, parasite or virus in culture; type: cell-based; settings: read-out: MIC values in γ/ml of nutrient medium, for Histoplasma
Aspergillus fumigatus = assay: Antimycotic activity in vitro, series dilution test (MIC); type: cell-based; settings: read-out: MIC values in γ/ml of nutrient medium, for Aspergillus fumigatus
Description: as §2, §3, §4

penicillium = assay: as above; type: cell-based; settings: 28° C., 24-96 hours, Sabouraud's milieu d'epreuve, 5 × 10^4 germs/ml, read-out: MIC values in γ/ml of nutrient medium, for penicillium
Description: as §2, §3, §4

bacteria = assay: Antibacterial activity (general statement); type: cell-based
E-Coli A 261 = assay: Antibacterial activity in vitro, plast test (MIC); type: cell-based; settings: agar plate, 5 × 10^3 /plate, pH 7.4
Description: as §1

[3] = 28° C., 24-96 hours, meat extract-glucose bouillon, 5 × 10^4 germs/ml
[4] = 28° C., 24-96 hours, Sabouraud's milieu d'epreuve, 5 × 10^4 germs/ml

c1ccc(-c2ccc(C(c3ccccc3)n3ccnc3)cc2)cc1 (centres unmarked) [drawing 13]
MIC values for Klebsiella 8085 (Klebsiella 8085): 128 µg/mL
MIC values for Streptococcus pyogenes W (Streptococcus pyogenes W): 10-20
MIC values for Staphylococcus aureus 133 [1]: 8 µg/mL
MIC values for Proteus vulgaris 1017 (Proteus vulgaris 1017): 128 µg/mL

Clc1ccccc1C(c1ccccc1)(c1ccccc1)n1ccnc1 [clotrimazol, bisphenyl-(2-chlorophenyl)-imidazol-1-ylmethane]
antimycotic action (fungi): good antimycotic action

CC(C)(C)c1ccc(C(c2ccc(-c3ccccc3)cc2)n2ccnc2)cc1 (centres unmarked)
MIC values for Klebsiella 8085 (Klebsiella 8085): 128 µg/mL
MIC values for Pseudomonas aerug. B (Pseudomonas aerug. B): 256 µg/mL
MIC values for Streptococcus pyogenes W (Streptococcus pyogenes W): 128
MIC values for Staphylococcus aureus 133 [1]: 8 µg/mL
MIC values for Proteus vulgaris 1017 (Proteus vulgaris 1017): 128 µg/mL

Clc1ccc(C(c2ccc(-c3ccccc3)cc2)n2ccnc2)cc1 (centres unmarked)
MIC values for Streptococcus pyogenes W (Streptococcus pyogenes W): 10
MIC values for Staphylococcus aureus 133 [1]: 8 µg/mL

Clc1cccc(C(c2ccc(-c3ccccc3)cc2)n2ccnc2)c1 (centres unmarked) [drawing 16]
MIC values for Streptococcus pyogenes W (Streptococcus pyogenes W): 128
MIC values for Staphylococcus aureus 133 [1]: 8 µg/mL

Clc1ccccc1C(c1ccc(-c2ccccc2)cc1)n1ccnc1 (centres unmarked) [drawing 10]
MIC [2]: < 1 µg/mL
MIC (Candida albicans; [3]): 2 µg/mL (≈ 5.8 µM)
MIC (Pityrosporum ovale): 1 µg/mL (≈ 2.9 µM)
MIC (Histoplasma): 4 µg/mL (≈ 11.6 µM)
MIC (Aspergillus fumigatus; [4]): < 0.1 µg/mL
MIC (penicillium): < 0.1 µg/mL

c1ccc(-c2ccc(C(c3ccccc3)n3ccnc3)cc2)cc1 (centres unmarked) [drawing 9]
MIC [2]: < 1 µg/mL
MIC (Candida albicans): 4 µg/mL (≈ 12.9 µM)
MIC (Pityrosporum ovale): 1 µg/mL (≈ 3.22 µM)
MIC (Histoplasma): 4 µg/mL (≈ 12.9 µM)
MIC (Aspergillus fumigatus): < 0.1 µg/mL
MIC (penicillium): < 0.1 µg/mL

C[C@@H]1[C@H](O)[C@@H](C)/C=C/C=C/CC/C=C/C=C/C=C/C=C/C(O[C@H]2O[C@H](C)[C@@H](O)[C@H](N)[C@@H]2O)CC2O[C@](O)(CC(O)C(O)CCC(O)CC(O)CC(O)CC(=O)O[C@H]1C)CC(O)C2C(=O)O (some centres unmarked) [nystatin]
antibacterial activity (bacteria): not present

Clc1ccccc1C(c1ccc(Oc2ccccc2)cc1)n1ccnc1 (centres unmarked)
MIC [2]: 16 µg/mL (≈ 44.3 µM)
MIC (Candida albicans; [3]): 8 µg/mL (≈ 22.2 µM)
MIC (Pityrosporum ovale): 1 µg/mL (≈ 2.77 µM)
MIC (Histoplasma): 2 µg/mL (≈ 5.54 µM)
MIC (Aspergillus fumigatus; [4]): < 0.1 µg/mL
MIC (penicillium): < 0.1 µg/mL

Clc1ccccc1C(c1ccc(-c2ccccc2)cc1)n1ccnc1 (centres unmarked) [drawing 14]
MIC values for Klebsiella 8085 (Klebsiella 8085): 128 µg/mL
MIC values for Pseudomonas aerug. B (Pseudomonas aerug. B): 256 µg/mL
MIC values for Streptococcus pyogenes W (Streptococcus pyogenes W): 128
MIC values for E-Coli A 261 (E-Coli A 261): 256 µg/mL
MIC values for Staphylococcus aureus 133 [1]: 8 µg/mL
MIC values for Proteus vulgaris 1017 (Proteus vulgaris 1017): 128 µg/mL

C[C@@H]1C/C=C/C=C/C=C/C=C/[C@H](O[C@@H]2O[C@H](C)[C@@H](O)[C@H](N)[C@@H]2O)C[C@@H]2O[C@](O)(C[C@@H](O)C[C@H]3O[C@@H]3/C=C/C(=O)O1)C[C@H](O)[C@H]2C(=O)O [pimaricin]
antibacterial activity (bacteria): not present

Clc1cccc(C(c2ccc(-c3ccccc3)cc2)n2ccnc2)c1 (centres unmarked) [drawing 11]
MIC [2]: 2 µg/mL (≈ 5.8 µM)
MIC (Candida albicans; [3]): 1 µg/mL (≈ 2.9 µM)
MIC (Pityrosporum ovale): 1 µg/mL (≈ 2.9 µM)
MIC (Histoplasma): 2 µg/mL (≈ 5.8 µM)
MIC (Aspergillus fumigatus; [4]): < 0.1 µg/mL
MIC (penicillium): < 0.1 µg/mL

COC1=CC(=O)C[C@@H](C)[C@]12Oc1c(Cl)c(OC)cc(OC)c1C2=O [griseofulvin]
antibacterial activity (bacteria): not present
